Test [1] relates to polymorphonuclear granulocytes. Nature of the test: FMLP-induced chemiluminescence of polymorphonuclear granulocytes (inhibition of FMLP-stimulated production of superoxide radical anions). Format: cell-based. Particulars: human PMN. On the procedure:
1. Preparation of human PMN Blood was taken from healthy subjects by venous puncture and neutrophils were purified by dextran sedimentation and resuspended in the buffered medium. 2. Inhibition of FMLP-stimulated production of superoxide radical anions. Neutrophils (2.5 × 10⁵ ml⁻¹) were mixed with the compounds according to the invention in dimethyl sulphoxide (DMSO), the final concentration of the compounds according to the invention being 10 µM and the DMSO concentration being 1% v/v. After addition of luminol, final concentration about 10⁻⁵M and 33 µg/ml of cytochalasin B, the cells were stimulated with a final concentration of about 5 × 10⁻⁸ M FMLP. Measurement of the chemiluminescence peaks was carried out using an LKB 1251 luminometer. The inhibition of the superoxide and the reduction of cytochrome C by FMLP-stimulated cells was likewise measured. Neutrophils (2.6 × 10⁵ ml⁻¹) were mixed with the compounds according to the invention as in the chemiluminescence experiment. Cytochrome C with a concentration of […] is also present. The superoxide-dependent cytochrome C reduction was measured using a Molecular Devices Thermomax plate reader. The inhibition of superoxide production was calculated as follows: [formula] […]

The subject of a further test is mitochondrial fraction. Nature of the test: Mitochondrial substrate oxidation assay (oxygen electrode). Format: biochemical. Particulars: NADPH oxidation by mitochondria, final concentration of 300 µM of the test substance, guinea pig hearts. How it is done: 7. Mitochondrial substrate oxidation assay A mitochondrial fraction was prepared from finely-cut guinea pig hearts. […] The compounds according to the invention were tested to gauge their inhibition of cell respiration by measurement of their effect on the oxidation of these two substances at a concentration of up to 100 µg/ml⁻¹. % inhibition of NADPH oxidation by mitochondria at a final concentration of 300 µM of the test substance Table C

The target of a further test is T1, NADPH oxidase (Homo sapiens, UniProt P04839).
T1 construct: endogenous in cells; host or cells: neutrophils, PMA-stimulated, sonicated; membrane fraction
T1 sequence (P04839 2-570 limits assumed): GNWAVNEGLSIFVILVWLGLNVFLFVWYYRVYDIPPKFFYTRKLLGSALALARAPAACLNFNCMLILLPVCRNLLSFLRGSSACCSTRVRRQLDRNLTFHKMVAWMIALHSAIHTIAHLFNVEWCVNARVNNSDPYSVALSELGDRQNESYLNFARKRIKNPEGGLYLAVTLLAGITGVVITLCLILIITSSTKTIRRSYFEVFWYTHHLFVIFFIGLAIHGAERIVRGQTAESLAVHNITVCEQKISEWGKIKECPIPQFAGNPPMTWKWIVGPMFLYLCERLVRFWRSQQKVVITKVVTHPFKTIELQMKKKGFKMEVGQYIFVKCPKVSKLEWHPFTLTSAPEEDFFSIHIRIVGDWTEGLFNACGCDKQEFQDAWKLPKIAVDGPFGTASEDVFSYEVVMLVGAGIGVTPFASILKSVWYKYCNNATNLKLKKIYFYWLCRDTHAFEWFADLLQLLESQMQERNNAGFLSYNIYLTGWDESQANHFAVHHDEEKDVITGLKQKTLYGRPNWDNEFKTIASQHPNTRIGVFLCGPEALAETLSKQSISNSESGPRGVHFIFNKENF
T1 sequence (P13498 2-195 partner limits assumed): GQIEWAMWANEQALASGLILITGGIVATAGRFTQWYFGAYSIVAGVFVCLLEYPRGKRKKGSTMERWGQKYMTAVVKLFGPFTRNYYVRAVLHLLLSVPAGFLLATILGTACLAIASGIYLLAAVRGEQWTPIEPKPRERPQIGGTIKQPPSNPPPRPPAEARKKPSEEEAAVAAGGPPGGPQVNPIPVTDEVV
Nature of the test: NADPH oxidase assay in membrane fractions of PMA-stimulated neutrophils. The conditions noted are these: final concentration of 33 µM of the test substance. Format: biochemical. On the procedure:
3. Inhibition of myeloperoxidase The compounds according to the invention were tested for their action on human neutrophil myeloperoxidase activity by the established method of Bos, A.J. et al., Infection and Immunity, 1981, 32 (2), 427-431. 4. Xanthine oxidase assay Equal parts of the substrate (7.5 mM hypoxanthine) were incubated at 25°C with the compounds according to the invention or carrier, and 10⁻⁵ M luminol and the enzyme xanthine oxidase were added immediately before starting the luminescence measurement. The formation of superoxide was then measured for 140 sec in the 1251 luminometer. The activity was in each case measured against xanthine oxidase in the presence or absence of the compounds according to the invention by monitoring the growth of the absorption at 292 nm due to the formation of uric acid. 5. Determination of the specificity When neutrophils are activated by PMA or FMLP, they release the lysosomal enzyme beta-glucuronidase. […] Using a concentration of 10⁶ cells ml⁻¹, the compounds according to the invention were tested in parallel using a cell preparation thereof to gauge their capability to inhibit FMLP-induced superoxide production and FMLP-induced beta-glucuronidase release. 6. NADPH oxidase assay Neutrophils were stimulated with PMA and treated with ultrasound, and a membrane fraction was prepared. […]

The record followed here is patent publication EP0551662A1, “Benzofuranyl- and thiophenylmethylthio-alcanecarboxylic acid derivatives” (BAYER AG, priority 1992, dated 1993).

The compound `COc1ccc(C(=O)c2oc3ccccc3c2CSCCC(=O)O)cc1C(=O)NS(=O)(=O)c1ccccc1C` [Example 17, 2-[4-Methoxy-3-(2-tolylsulphonamide-carbonyl)-benzoyl]-3-[(2-carboxyethyl)thiomethyl]benzo[b]furan] came in with an inhibition at 10 µM in test [1] (10 µM of the test substance) of 96 ± 2%. In test [1] (read-out: IC₅₀), the IC50 amounted to 700 nM. Also, in the test on mitochondrial fraction, the “% inhibition (mitochondrial respiration)” value amounted to 24 ± 2%. At NADPH oxidase, this compound gave an inhibition at 33 µM of 21 ± 7%.
Consider `COc1ccc(C(=O)c2oc3ccccc3c2CSCCC(=O)O)cc1C(=O)O` [Example 31], for which the “% inhibition (mitochondrial respiration)” value with mitochondrial fraction is on record as 0 ± 7%. For the same compound, 33 µM produced 20% inhibition at NADPH oxidase.
